According to patent publication US6965021B2, “Feedback-resistant pyruvate carboxylase gene from corynebacterium” (Archer-Daniels-Midland Company, priority 2000, dated 2005):
Like-named read-outs stand apart in the source and are kept apart here.

How the values were obtained:
[1] = biological target: Corynebacterium glutamicum NRRL B-11474 (BF100) pyruvate carboxylase, feedback-resistant variant (M1V, E153D, A182S, A206S, H227R, A455G, D1120E), SEQ ID NO:2 (Corynebacterium glutamicum, UniProt H7C7K2, A182S/A206S/A455G/D1120E/E153D/H227R/M1V)
Procedure: (§1) Pyruvate carboxylate and phosphoenol pyruvate carboxylate assays were performed with permeabilized cells prepared by the following method. Log phase cells were harvested by centrifugation for 10 min at 5000×g at 4° C. and washed with 20 ml of the ice-cold washing buffer (50 mM Tris/HCl [pH 6.3] containing 50 mM NaCl). The cell pellet was resuspended in an ice-cold Hepes buffer (100 mM Hepes [pH 7.5] containing 20% Glycerol) to reach a final concentration of 25 g dry cell weight/liter. Resuspended cells were permeabilized by adding 30 μl of a 10% Hexadecyltrimethyl-ammonium bromide (CTAB) (w/v) solution to 1 ml of cells to give a final concentration of 0.3% (CTAB)(v/v).
The reaction was started at 30° C. with the addition of 10 μl of the permeabilized cell suspension, and the formation of DTNB-thiophenolate was followed over time at 412 nm. Relevant standards and controls were carried out in the same manner.
To account for the intrinsic loss of OAA during the experiment, a continuous assay was carried out by coupling the two-reaction assay to a one-reaction assay in presence of an excess of citrate synthase. The amount of permeabilized cells added in the assay was optimized to obtain a detectable activity, with the lowest possible background absorbency due to the presence of cells.
Pyruvate carboxylase activity was determined as a function of various concentrations of its substrates: pyruvate, bicarbonate and ATP (FIG. 3). Based on the data generated, the affinity constants of pyruvate carboxylase for its substrates were determined (Table 2).
To determine the effect of aspartate on the activity of pyruvate carboxylase, aspartate was added at different concentrations in the spectrophotometer cuvette and enzyme activities were measured. As a comparison, the same experiment was carried out with PEPC in ATCC 21253 (FIG. 5).
Pyruvate carboxylase activity was measured in the presence of different concentrations of acetyl-CoA (FIG. 6). […] The effect of acetyl-CoA on citrate synthase itself was studied also.

[2] = biological target: T1, Corynebacterium glutamicum ATCC 21253 phosphoenol pyruvate carboxylase (PEPC) (Corynebacterium glutamicum, UniProt P12880); test: Phosphoenol pyruvate carboxylase assay (permeabilized cells), ATCC 21253; assay type: biochemical; conditions: no concentration stated
T1 sequence (P12880 1-919): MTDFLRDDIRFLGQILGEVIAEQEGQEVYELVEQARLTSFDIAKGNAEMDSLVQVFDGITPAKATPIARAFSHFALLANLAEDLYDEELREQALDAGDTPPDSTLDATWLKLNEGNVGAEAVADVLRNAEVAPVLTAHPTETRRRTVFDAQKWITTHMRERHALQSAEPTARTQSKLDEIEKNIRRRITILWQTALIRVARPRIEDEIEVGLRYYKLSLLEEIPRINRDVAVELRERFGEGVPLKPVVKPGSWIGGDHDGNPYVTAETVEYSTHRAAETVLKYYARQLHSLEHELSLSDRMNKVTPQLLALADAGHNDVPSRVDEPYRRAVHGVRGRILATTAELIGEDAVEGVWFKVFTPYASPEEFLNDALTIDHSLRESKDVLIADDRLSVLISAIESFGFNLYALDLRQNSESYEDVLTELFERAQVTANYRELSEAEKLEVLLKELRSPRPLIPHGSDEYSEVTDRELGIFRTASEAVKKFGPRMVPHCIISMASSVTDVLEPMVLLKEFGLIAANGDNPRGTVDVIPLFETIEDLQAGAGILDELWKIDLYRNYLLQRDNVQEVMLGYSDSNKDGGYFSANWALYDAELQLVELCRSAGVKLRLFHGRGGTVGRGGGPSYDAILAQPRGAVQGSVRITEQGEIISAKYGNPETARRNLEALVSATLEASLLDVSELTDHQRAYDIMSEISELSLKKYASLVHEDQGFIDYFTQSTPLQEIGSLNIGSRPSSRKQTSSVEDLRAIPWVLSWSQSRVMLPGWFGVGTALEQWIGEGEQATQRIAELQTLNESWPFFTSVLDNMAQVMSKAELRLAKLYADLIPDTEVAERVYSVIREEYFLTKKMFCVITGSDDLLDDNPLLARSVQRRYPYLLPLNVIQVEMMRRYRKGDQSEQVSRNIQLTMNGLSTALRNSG
Procedure: as §1
For determination of phosphoenol pyruvate carboxylase activity, the assay mixture contained 10 mM phosphoenol pyruvate, 14 mM KHCO3, 4 mM MgCl2, 50 μmole acetyl-CoA, 0.3 mg bovine serum albumin, 0.055 U citrate synthase and 50 mM sodium phosphate buffer ([pH 7.5] containing 0.1 mg 5,5′-Dithio-bis(2-nitrobenzoic acid) (DTNB)) in a final volume of 1 ml. The reaction was carried out in the same conditions described for the pyruvate carboxylase assay.
Aspartate inhibits phosphoenol pyruvate carboxylase (PEPC) activity. To determine the effect of aspartate on the activity of pyruvate carboxylase, aspartate was added at different concentrations in the spectrophotometer cuvette and enzyme activities were measured. […]

N[C@@H](CC(=O)O)C(=O)O [aspartate, aspartic acid]
effect of aspartate on pyruvate carboxylase activity ([1]; 0-30 mM aspartate): activated | effect of aspartate on pyruvate carboxylase activity ([1]; 30-100 mM aspartate): inhibited | inhibition of PEPC by aspartate [2]: strongly inhibited
